According to PubChem BioAssay (NCI):
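Protocol summary: plate cells (96-well), add compound at 5 concentrations, incubate 48 h, interpolate endpoints linearly. TGI is the concentration that stops growth completely.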

How the values were obtained:
Experiment in all cases: NCI-60 cell line screen, 48 h
MCF7 breast = test system: MCF7 breast
TK-10 renal = test system: TK-10 renal
U251 CNS = test system: U251 CNS
UACC-62 melanoma = test system: UACC-62 melanoma
RXF 393 renal = test system: RXF 393 renal
NCI-H460 lung = test system: NCI-H460 lung
SR leukemia = test system: SR leukemia
MDA-N = test system: MDA-N
OVCAR-3 ovarian = test system: OVCAR-3 ovarian
HS 578T breast = test system: HS 578T breast

Row | Compound | TGI (MCF7 breast) [µM] | TGI (TK-10 renal) [µM] | TGI (U251 CNS) [µM] | TGI (UACC-62 melanoma) [µM] | TGI (RXF 393 renal) [µM] | TGI (NCI-H460 lung) [µM] | TGI (SR leukemia) [µM] | TGI (MDA-N) [µM] | TGI (OVCAR-3 ovarian) [µM] | TGI (HS 578T breast) [µM]
1 | COc1ccc(Nc2ccc3ccccc3c2-c2c(O)ccc3ccccc23)cc1 | 25.6 | 75.3 | 56 | > 100 | 49.8 | 30 | 30.6 | 29.4 | 27.7 | 
2 | C=CC[n+]1c2ccccc2n2cc([N+](=O)[O-])ccc21 | 79.8 | > 100 | > 100 | 74.9 | > 100 |  |  | 50.7 | 69.7 | 
3 | CCCCCCCCCCCCCCCCCCNc1nc(=O)n(C2CC(O)C(COP(=O)(O)O)O2)cc1F (configuration not stated) | > 100 | > 100 | > 100 | > 100 | > 100 | > 100 |  | > 100 | > 100 | > 100
4 | NNC(=O)C1(NC(=O)c2ccccc2)C(c2ccccc2)C(c2ccccc2)=NN1c1ccccc1 (configuration not stated) | > 100 | > 100 | > 100 | 56.9 | 53.4 | > 100 | 65.6 | 57.9 | > 100 | 
5 | CCOP(=O)(OCC)/C(=C/c1cccs1)CC(C)=O | > 100 | > 100 | > 100 | > 100 | > 100 | > 100 |  | > 100 | > 100 | > 100
6 | COc1ccc(C(SC2C(O)C(CO)OC2n2ccc(=O)[nH]c2=O)(c2ccccc2)c2ccc(OC)cc2)cc1 (configuration not stated) | 43.7 | 57 | 30 | 33.3 | 32.4 | 26 |  | 26.1 | 37.1 | 53.6
7 | COc1ccc(-c2oc3cc(O)cc(O)c3c(=O)c2OC)cc1 | > 100 | > 100 | 52.1 | > 100 |  | 65.6 | > 100 | > 100 | 60.9 | 
8 | CN(C)/N=N/c1nc2c(c(=O)n(C)c(=O)n2C)n1CC(O)CO (configuration not stated) | > 100 | > 100 | > 100 | > 100 | > 100 | > 100 |  | > 100 | > 100 | > 100
9 | C=CCC1C(O[Si](C)(C)C(C)(C)C)C(CO[Si](C)(C)C(C)(C)C)OC1n1ccc(=O)[nH]c1=O (configuration not stated) |  |  | 5.66 | 3.46 |  | 2.93 | 18.4 | 2.89 | 3.34 | 
10 | CC(=O)Nc1ccc(OC/C(N)=N/NC(=O)c2ccncc2)cc1 | > 100 | > 100 | > 100 | > 100 | > 100 | > 100 |  | > 100 | > 100 | > 100
11 | Cn1c(=O)oc2nc(-c3ccccc3)cc(C(F)(F)F)c21 | > 100 | > 100 | > 100 | > 100 |  | > 100 | > 100 | > 100 | > 100 | 
12 | CC(C)(C)CC(C)(C)c1cc(O)c(O)c(CN2CCCCC2)c1 | 25.1 | 29.6 | 24.3 | 29.8 | 29.2 | 24 |  | 28.3 | 28 | 41.3
13 | CCc1cc2c(c3c1CCCC3=O)CC1(Cc3ccc(C(=O)OC)cc3C1)C2 (configuration not stated) | > 100 | > 100 | > 100 |  | > 100 | > 100 |  | > 100 | > 100 | > 100
14 | CCOP(=O)(O)CN1CCNCCN(CP(=O)(O)OCC)CCNCC1 | > 100 | > 100 | > 100 | > 100 | > 100 | > 100 |  | > 100 | > 100 | > 100
15 | NCC(O)CSCc1ccc(Cl)cc1 (configuration not stated) | > 100 | > 100 | > 100 | > 100 | > 100 | > 100 |  | > 100 | > 100 | > 100
16 | COc1cc(C2C(Cl)C(=O)N2c2c(C)n(C)n(-c3ccccc3)c2=O)ccc1O (configuration not stated) | 48.7 | 63.5 | 38 | 29.7 | 33.6 | 59.7 | 58.6 | 32.6 | > 100 | 
17 | Nc1nc(Cl)cc(NC23CC4CC(CC(C4)C2)C3)n1 | > 100 |  | > 100 | > 100 | > 100 | > 100 | > 100 | > 100 | > 100 | 
18 | CCOC(=O)c1cc2c([N+](=O)[O-])c(N)ccc2s1 | > 100 | > 100 | > 100 | > 100 | > 100 | > 100 |  | > 100 | > 100 | > 100
19 | C=C=C(CC(CC(=C)Br)(C(=O)OC)C(=O)OC)S(=O)(=O)c1ccccc1 | 16.4 | 4.8 | 2.95 | 3.11 | 3.99 | 20.7 |  | 8.58 | 4.98 | 6.37
